# Measured values as given in ChEMBL document CHEMBL4507326, “Data for DCP probe TP-030-2” (2021).
# Legend:
# [1] = target: Dual specificity protein kinase CLK2 (Homo sapiens, UniProt P49760); assay: CLK2(CLK2LGF1) Takeda global kinase panel
# [2] = target: Alpha-2A adrenergic receptor (Homo sapiens, UniProt P08913); assay: GPCRScan assay: inhibition of Alpha2A; design: radioligand conc. used [nm] 1.0 – 3.0, parental cells stable MDCK
# [3] = target: Alpha-2A adrenergic receptor (Homo sapiens) (UniProt P08913); conditions: Compound concentration 10.0 uM
# [4] = target: 5-hydroxytryptamine receptor 2B (Homo sapiens) (UniProt P41595); conditions: Compound concentration 10.0 uM
# SRSF protein kinase 3 = SRSF protein kinase 3 (Homo sapiens, UniProt Q9UPE1); assay: MSSK1(SRP3MHRL) Takeda global kinase panel
# [5] = target: NT-3 growth factor receptor (Homo sapiens, UniProt Q16288); assay: TRKC(NTR3LGN1) Takeda global kinase panel
# [6] = target: D(1B) dopamine receptor (Homo sapiens) (UniProt P21918); assay: Dopamine D5 Eurofins-Panlabs radioligand binding assay; conditions: Compound concentration 10.0 uM
# [7] = target: Calcium/calmodulin-dependent protein kinase type 1G (Homo sapiens, UniProt Q96NX5); assay: CaMK1gamma(CA1GLGN1) Takeda global kinase panel
# [8] = target: GABA-A receptor; anion channel (Rattus norvegicus) (UniProt O09028+P15431+P18506+P18508+P19969+P20236+P23574+P23576+P28471+P28473+P30191+P62813+P63079+P63138+Q91ZM7+Q9ES14); assay: Inhibition of GABAA, Muscimol, Central at 10 µM in the Eurofins-Panlabs radioligand binding assay (Eurofins_assay_226500); format: protein-complex assay; conditions: Compound concentration 10.0 uM
# [9] = target: Serine/threonine-protein kinase pim-1 (Homo sapiens, UniProt P11309); assay: Pim1(PIM1LGP1) Takeda global kinase panel
# Sequence of Serine/threonine-protein kinase pim-1 (P11309 whole entry): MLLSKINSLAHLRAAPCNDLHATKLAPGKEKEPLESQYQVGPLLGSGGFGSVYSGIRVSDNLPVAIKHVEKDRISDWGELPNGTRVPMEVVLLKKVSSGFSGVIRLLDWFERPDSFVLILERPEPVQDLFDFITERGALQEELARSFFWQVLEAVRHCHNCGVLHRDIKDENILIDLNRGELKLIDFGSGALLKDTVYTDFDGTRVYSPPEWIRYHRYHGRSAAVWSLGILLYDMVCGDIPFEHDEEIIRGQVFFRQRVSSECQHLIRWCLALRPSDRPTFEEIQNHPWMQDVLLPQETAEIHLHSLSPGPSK
# [10] = target: Ribosomal protein S6 kinase alpha-2 (Homo sapiens, UniProt Q15349); assay: RSK3(R6A1CGE1) Takeda global kinase panel
# [11] = target: Serine/threonine-protein kinase PLK4 (Homo sapiens, UniProt O00444); assay: PLK4(PLK4LGF1) Takeda global kinase panel
# [12] = target: Mitogen-activated protein kinase 11 (Homo sapiens, UniProt Q15759); assay: p38beta(MP11LGI1) Takeda global kinase panel
# [13] = target: Serine/threonine-protein kinase 26 (Homo sapiens, UniProt Q9P289); assay: MST4(MST4LGC1) Takeda global kinase panel
# [14] = target: Tyrosine-protein kinase ABL2 (Homo sapiens, UniProt P42684); assay: Arg(ABL2LGF1) Takeda global kinase panel
# [15] = target: Protein kinase C iota type (Homo sapiens, UniProt P41743); assay: PKCiota(PRKILGRD) Takeda global kinase panel
# Ephrin type-A receptor 6 = Ephrin type-A receptor 6 (Homo sapiens, UniProt Q9UF33); assay: EphA6(EPA6LGI5) Takeda global kinase panel
# [16] = target: Serine/threonine-protein kinase Sgk3 (Homo sapiens, UniProt Q96BR1); assay: SGK3(SGK3LGY1) Takeda global kinase panel
# Sequence of Serine/threonine-protein kinase Sgk3 (Q96BR1 whole entry): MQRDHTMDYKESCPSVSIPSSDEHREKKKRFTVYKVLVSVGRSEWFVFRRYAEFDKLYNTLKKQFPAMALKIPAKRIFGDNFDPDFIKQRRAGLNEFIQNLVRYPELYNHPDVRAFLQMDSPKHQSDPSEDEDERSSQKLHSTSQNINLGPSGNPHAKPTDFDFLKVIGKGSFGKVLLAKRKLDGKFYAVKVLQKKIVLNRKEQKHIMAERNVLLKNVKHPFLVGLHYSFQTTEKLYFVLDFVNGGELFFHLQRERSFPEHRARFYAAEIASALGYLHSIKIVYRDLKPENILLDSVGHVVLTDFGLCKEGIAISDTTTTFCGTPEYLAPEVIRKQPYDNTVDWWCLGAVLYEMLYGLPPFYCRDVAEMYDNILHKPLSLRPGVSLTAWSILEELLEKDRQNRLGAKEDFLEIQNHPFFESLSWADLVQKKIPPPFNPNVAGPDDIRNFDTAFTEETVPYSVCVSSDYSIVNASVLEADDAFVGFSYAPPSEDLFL
# [17] = target: Homeodomain-interacting protein kinase 4 (Homo sapiens, UniProt Q8NE63); assay: HIPK4(HIP4LHY1) Takeda global kinase panel
# Sequence of Homeodomain-interacting protein kinase 4 (Q8NE63 whole entry): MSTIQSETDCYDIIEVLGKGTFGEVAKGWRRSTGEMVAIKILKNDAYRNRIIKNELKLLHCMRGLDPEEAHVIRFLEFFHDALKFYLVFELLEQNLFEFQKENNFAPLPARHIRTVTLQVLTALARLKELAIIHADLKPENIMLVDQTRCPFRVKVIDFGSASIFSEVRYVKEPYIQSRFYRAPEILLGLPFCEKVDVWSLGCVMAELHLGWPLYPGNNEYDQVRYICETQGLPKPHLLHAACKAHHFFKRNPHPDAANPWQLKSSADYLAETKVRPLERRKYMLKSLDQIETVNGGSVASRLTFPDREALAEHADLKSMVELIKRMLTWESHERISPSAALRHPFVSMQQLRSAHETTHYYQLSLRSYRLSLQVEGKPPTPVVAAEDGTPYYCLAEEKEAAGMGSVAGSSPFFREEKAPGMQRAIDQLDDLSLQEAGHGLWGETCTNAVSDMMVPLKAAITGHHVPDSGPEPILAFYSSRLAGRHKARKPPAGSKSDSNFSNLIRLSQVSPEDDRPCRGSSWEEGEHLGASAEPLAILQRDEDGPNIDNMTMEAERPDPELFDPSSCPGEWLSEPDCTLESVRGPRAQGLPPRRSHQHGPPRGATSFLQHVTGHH
# [18] = target: Rho-associated protein kinase 1 (Homo sapiens, UniProt Q13464); assay: ROCK1(ROC1LGY1) Takeda global kinase panel
# [19] = target: G protein-coupled receptor kinase 6 (Homo sapiens, UniProt P43250); assay: GRK6(GRK6LGP1) Takeda global kinase panel
# Sequence of G protein-coupled receptor kinase 6 (P43250 whole entry): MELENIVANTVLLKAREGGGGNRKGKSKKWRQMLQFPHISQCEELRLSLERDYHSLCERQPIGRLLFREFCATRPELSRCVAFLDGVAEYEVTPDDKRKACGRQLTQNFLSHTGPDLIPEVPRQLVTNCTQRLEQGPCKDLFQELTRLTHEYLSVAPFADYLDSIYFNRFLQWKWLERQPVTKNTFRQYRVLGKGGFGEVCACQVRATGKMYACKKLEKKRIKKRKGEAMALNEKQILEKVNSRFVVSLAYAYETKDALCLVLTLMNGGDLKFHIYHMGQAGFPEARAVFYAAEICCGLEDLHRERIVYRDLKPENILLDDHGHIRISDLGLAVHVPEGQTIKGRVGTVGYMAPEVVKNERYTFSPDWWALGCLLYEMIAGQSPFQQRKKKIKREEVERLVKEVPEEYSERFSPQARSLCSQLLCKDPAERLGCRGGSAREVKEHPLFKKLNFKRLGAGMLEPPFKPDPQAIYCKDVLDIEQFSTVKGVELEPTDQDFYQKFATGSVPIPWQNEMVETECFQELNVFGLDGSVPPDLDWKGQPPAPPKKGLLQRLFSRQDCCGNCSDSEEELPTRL
# [20] = target: Serine/threonine-protein kinase OSR1 (Homo sapiens, UniProt O95747); assay: OSR1(OXS1LGY1) Takeda global kinase panel
# [21] = target: Dual specificity testis-specific protein kinase 2 (Homo sapiens, UniProt Q96S53); assay: TESK2(TES2LGRL) Takeda global kinase panel
# [22] = target: Dual specificity tyrosine-phosphorylation-regulated kinase 1A (Homo sapiens, UniProt Q13627); assay: DYRK1A(DY1ALGP1) Takeda global kinase panel
# [23] = target: Serine/threonine-protein kinase TAO3 (Homo sapiens, UniProt Q9H2K8); assay: TAO3(TAO3LGY1) Takeda global kinase panel
# [24] = target: Serine/threonine-protein kinase NLK (Homo sapiens, UniProt Q9UBE8); assay: NLK(NLK1LGI5) Takeda global kinase panel
# [25] = target: Dual specificity protein kinase CLK4 (Homo sapiens, UniProt Q9HAZ1); assay: CLK4(CLK4IGF1) Takeda global kinase panel
# [26] = target: Serine/threonine-protein kinase SIK3 (Homo sapiens, UniProt Q9Y2K2); assay: QSK(SIK3LGP1) Takeda global kinase panel
# [27] = target: Serine/threonine-protein kinase Chk1 (Homo sapiens, UniProt O14757); assay: CHK1(CHE1CGP1) Takeda global kinase panel
# [28] = target: Calcium/calmodulin-dependent protein kinase type IV (Homo sapiens, UniProt Q16566); assay: CaMK4(CAM4LGY1) Takeda global kinase panel
# Sequence of Calcium/calmodulin-dependent protein kinase type IV (Q16566 whole entry): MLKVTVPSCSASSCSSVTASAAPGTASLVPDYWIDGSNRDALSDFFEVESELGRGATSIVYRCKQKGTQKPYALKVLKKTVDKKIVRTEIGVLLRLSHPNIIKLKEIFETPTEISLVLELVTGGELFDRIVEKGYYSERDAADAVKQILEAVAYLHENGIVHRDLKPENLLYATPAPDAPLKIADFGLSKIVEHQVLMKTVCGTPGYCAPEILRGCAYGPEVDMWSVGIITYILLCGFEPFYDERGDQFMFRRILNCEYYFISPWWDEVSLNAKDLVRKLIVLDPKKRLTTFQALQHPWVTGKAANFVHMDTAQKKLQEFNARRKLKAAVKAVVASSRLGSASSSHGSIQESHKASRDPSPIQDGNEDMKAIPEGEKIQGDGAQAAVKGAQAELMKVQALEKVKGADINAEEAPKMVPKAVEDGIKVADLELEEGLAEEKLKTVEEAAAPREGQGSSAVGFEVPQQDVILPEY
# [29] = target: Serine/threonine-protein kinase ULK3 (Homo sapiens, UniProt Q6PHR2); assay: ULK3(ULK3LGF1) Takeda global kinase panel
# [30] = target: Histamine H1 receptor (Homo sapiens) (UniProt P35367); conditions: Compound concentration 10.0 uM
# Sequence of Histamine H1 receptor (Homo sapiens) (P35367 whole entry): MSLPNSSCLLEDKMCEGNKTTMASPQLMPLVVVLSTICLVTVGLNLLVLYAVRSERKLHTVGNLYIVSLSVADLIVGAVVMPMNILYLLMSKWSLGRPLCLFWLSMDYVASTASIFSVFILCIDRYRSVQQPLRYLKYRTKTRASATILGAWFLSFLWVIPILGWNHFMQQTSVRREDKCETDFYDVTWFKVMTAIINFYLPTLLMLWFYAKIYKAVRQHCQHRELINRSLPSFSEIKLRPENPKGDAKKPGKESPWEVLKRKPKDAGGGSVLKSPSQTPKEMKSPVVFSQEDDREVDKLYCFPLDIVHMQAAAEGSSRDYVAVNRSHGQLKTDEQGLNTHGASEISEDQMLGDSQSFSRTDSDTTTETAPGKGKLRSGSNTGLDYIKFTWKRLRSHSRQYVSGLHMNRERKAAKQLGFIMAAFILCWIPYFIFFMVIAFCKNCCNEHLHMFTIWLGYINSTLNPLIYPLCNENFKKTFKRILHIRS
# [31] = target: Cyclin-dependent kinase 5 (Homo sapiens, UniProt Q00535); assay: CDK5(CDK5CGS1) Takeda global kinase panel
# Sequence of Cyclin-dependent kinase 5 (Q00535 whole entry): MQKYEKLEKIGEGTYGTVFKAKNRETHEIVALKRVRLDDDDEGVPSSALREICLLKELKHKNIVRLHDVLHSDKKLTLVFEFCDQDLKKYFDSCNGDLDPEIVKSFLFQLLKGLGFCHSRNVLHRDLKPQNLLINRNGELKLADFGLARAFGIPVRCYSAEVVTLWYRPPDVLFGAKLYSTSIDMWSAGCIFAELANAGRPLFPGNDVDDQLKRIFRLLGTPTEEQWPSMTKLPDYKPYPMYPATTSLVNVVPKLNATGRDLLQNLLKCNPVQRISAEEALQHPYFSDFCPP
# [32] = target: Homeodomain-interacting protein kinase 2 (Homo sapiens, UniProt Q9H2X6); assay: HIPK2(HIP2LGY1) Takeda global kinase panel
# [33] = target: Death-associated protein kinase 2 (Homo sapiens, UniProt Q9UIK4); assay: DAPK2(DAP2LGF1) Takeda global kinase panel
# [34] = target: Tyrosine-protein kinase BTK (Homo sapiens, UniProt Q06187); assay: BTK(BTK1CGF1) Takeda global kinase panel
# [35] = target: Protein kinase C epsilon type (Homo sapiens, UniProt Q02156); assay: PKCepsilon(PRKELHY1) Takeda global kinase panel
# [36] = target: Delta-type opioid receptor (Homo sapiens) (UniProt P41143); conditions: Compound concentration 10.0 uM
# [37] = target: 5-hydroxytryptamine receptor 3A (Homo sapiens) (UniProt P46098); assay: Inhibition of Serotonin (5-Hydroxytryptamine) 5-HT3 at 10 µM in the Eurofins-Panlabs radioligand binding assay (Eurofins_assay_271910); design: ligand concentration 0.69 nM; conditions: Compound concentration 10.0 uM
# [38] = target: Serine/threonine-protein kinase N2 (Homo sapiens, UniProt Q16513); assay: PKN2 [PRK2(PKN2LGG5)] Takeda global kinase panel
# Sequence of Serine/threonine-protein kinase N2 (Q16513 whole entry): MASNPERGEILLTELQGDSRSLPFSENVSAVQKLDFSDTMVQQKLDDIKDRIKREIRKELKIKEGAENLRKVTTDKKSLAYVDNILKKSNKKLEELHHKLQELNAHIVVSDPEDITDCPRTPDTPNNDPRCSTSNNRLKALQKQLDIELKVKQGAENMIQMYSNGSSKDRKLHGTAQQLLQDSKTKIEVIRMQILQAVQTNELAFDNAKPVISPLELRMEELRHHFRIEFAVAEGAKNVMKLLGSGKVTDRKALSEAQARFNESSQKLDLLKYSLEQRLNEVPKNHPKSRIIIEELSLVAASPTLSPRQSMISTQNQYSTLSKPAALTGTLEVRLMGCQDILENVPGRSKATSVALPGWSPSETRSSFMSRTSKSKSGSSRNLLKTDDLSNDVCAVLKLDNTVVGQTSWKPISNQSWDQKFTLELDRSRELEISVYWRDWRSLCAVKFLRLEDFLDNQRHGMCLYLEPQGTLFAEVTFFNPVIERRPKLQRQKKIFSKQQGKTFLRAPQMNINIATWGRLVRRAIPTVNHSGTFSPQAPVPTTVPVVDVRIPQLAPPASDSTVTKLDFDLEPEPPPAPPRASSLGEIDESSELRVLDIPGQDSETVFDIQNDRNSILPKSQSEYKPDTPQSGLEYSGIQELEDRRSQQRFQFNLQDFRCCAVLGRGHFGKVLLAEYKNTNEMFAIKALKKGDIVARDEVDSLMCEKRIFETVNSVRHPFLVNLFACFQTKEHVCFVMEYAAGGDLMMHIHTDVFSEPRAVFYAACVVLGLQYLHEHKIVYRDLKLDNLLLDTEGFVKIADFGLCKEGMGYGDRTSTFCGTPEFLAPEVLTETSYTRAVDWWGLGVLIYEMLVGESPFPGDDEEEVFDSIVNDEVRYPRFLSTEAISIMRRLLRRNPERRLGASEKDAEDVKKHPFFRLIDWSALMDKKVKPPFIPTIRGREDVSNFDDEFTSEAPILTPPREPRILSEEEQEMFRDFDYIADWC
# [39] = target: Adenosine receptor A2a (Homo sapiens) (UniProt P29274); conditions: Compound concentration 10.0 uM
# [40] = target: Serine/threonine-protein kinase BRSK1 (Homo sapiens, UniProt Q8TDC3); assay: BRSK1(BRS1LGA1) Takeda global kinase panel
# Sequence of Serine/threonine-protein kinase BRSK1 (Q8TDC3 whole entry): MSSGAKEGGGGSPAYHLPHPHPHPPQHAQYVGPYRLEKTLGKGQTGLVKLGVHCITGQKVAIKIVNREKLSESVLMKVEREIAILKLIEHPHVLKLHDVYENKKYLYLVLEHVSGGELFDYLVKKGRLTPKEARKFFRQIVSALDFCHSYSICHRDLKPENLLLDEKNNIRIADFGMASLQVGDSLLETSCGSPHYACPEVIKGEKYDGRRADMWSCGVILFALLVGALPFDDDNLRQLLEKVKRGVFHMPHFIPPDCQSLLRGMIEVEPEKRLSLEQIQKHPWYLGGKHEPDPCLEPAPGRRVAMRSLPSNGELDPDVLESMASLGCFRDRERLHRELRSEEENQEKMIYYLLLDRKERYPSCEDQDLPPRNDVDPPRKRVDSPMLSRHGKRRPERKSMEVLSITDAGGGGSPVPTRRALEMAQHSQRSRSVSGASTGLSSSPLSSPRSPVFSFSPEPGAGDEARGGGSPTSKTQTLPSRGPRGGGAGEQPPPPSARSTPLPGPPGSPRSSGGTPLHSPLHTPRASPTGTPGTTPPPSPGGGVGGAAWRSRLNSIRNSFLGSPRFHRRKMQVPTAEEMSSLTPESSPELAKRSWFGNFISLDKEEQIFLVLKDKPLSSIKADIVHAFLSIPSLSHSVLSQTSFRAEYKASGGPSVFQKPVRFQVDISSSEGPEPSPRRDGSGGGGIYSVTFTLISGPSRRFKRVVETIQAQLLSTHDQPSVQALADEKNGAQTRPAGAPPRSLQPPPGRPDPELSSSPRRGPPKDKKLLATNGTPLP
# [41] = target: Protein kinase C zeta type (Homo sapiens, UniProt Q05513); assay: PKCzeta(PRKZLGP1) Takeda global kinase panel
# Rhodopsin kinase GRK1 = Rhodopsin kinase GRK1 (Homo sapiens, UniProt Q15835); assay: RHODK [GRK1(GRK1LGA1)] Takeda global kinase panel
compound,measurement,setting,value
CN1C(=O)[C@@H](N2CCc3c(nn(Cc4ccccc4)c3Br)C2=O)COc2ccccc21 [TP-030-2],IC50,[1],1000 nM
same,Ki,[2],2360 nM
same,inhibition,[3],68%
same,inhibition,[4],38.3%
same,IC50,SRSF protein kinase 3,1000 nM
same,IC50,[5],1000 nM
same,inhibition,[6],2%
same,IC50,[7],1000 nM
same,inhibition,[8],7%
same,IC50,[9],1000 nM
same,IC50,[10],1000 nM
same,IC50,[11],1000 nM
same,IC50,[12],1000 nM
same,IC50,[13],1000 nM
same,IC50,[14],1000 nM
same,IC50,[15],1000 nM
same,IC50,Ephrin type-A receptor 6,1000 nM
same,IC50,[16],1000 nM
same,IC50,[17],1000 nM
same,IC50,[18],1000 nM
same,IC50,[19],1000 nM
same,IC50,[20],1000 nM
same,IC50,[21],1000 nM
same,IC50,[22],1000 nM
same,IC50,[23],1000 nM
same,IC50,[24],1000 nM
same,IC50,[25],1000 nM
same,IC50,[26],1000 nM
same,IC50,[27],1000 nM
same,IC50,[28],1000 nM
same,IC50,[29],1000 nM
same,inhibition,[30],9.99%
same,IC50,[31],1000 nM
same,IC50,[32],1000 nM
same,IC50,[33],1000 nM
same,IC50,[34],1000 nM
same,IC50,[35],1000 nM
same,inhibition,[36],30.1%
same,inhibition,[37],4%
same,IC50,[38],1000 nM
same,inhibition,[39],8%
same,IC50,[40],1000 nM
same,IC50,[41],1000 nM
same,IC50,Rhodopsin kinase GRK1,1000 nM
